Assay results from article PMC11718441, “Bis-3-chloropiperidines: a novel motif for anthelmintic drug design” (RSC Advances, 2025).
Converted amounts (≈) assume the structure as drawn. Where two headings read alike, the source gives them in different places.

Legend:
[1] = test system: Septoria tritici MUCL45408; experiment: Minimum inhibitory concentration (MIC), S. tritici (ATP quantification); assay type: cell-based; details: for MIC: Zymoseptoria tritici, read-out: MIC St
Experimental: (§1) The minimum inhibitory concentration (MIC) of the synthesized compounds was initially determined against three microbial indicator strains (Escherichia coli ATCC35218, […] ATCC33592, Septoria tritici MUCL45408). […]
(§2) 2. Microbial and parasitological studies
(§3) The minimum inhibitory concentration (MIC) of the synthesized compounds was determined against three microbial indicator strains (E. coli ATCC35218, S. aureus ATCC33592 and S. tritici MUCL45408) as previously described.1,2 All samples were dissolved in DMSO and tested in triplicate. Briefly, a pre-culture of E. coli and S. aureus was prepared by incubating the strains in cation adjusted Mueller Hinton 2 broth (Becton Dickinson, Sparks, NV, USA) at 37°C and 180 rpm overnight. The cell density of adjusted to 5 × 10^5 cells/mL before assays were incubated at 37 °C, 180 rpm and 85% rH. Three distinct dilution series of standard antibiotics (gentamicin, rifampicin, and tetracycline) were used as positive controls on each assay plate. Inoculated medium without test compound or positive control was used as negative control.
Medium background was averaged from 5 replicates. The turbidity of each well was measured with a microplate spectrophotometer at 600 nm (LUMIstar® Omega, BMG Labtech) and growth inhibition was calculated relative to the absorption of the controls. For S. tritici MUCL45408 inoculated at a density of 1 × 10^5 cells/mL in potato […]
dextrose medium. Septoria assay plates were incubated for 4 days at 25 °C, 180 rpm and 85% rH. Tebuconazole, amphotericin B, and nystatin were used as positive controls. Cell viability was evaluated via ATP quantification (BacTiter-Glo™, Promega GmbH, Walldorf, Germany) according to the manufacturer’s instructions. […]

[2] = test system: C. elegans DC19; experiment: whole plant or invertebrate; assay type: cell-based, Caenorhabditis elegans
Text: (§4) The cuticle of C. elegans strain DC19 is known to be more permeable for small molecules compared to the wildtype N2.[30] DC19 is thereby considered an informative drug-sensitive test organism. In our assays, we determined the minimum mobility inhibitory concentration (MMIC) as a proxy for anthelmintic activity. […] In contrast, MMICs of some small molecule anthelmintics such as albendazole, mebendazole or PF-1022A were lower for DC19 (Fig. S1 ^†). […]
(§5) 2.2 In vitro tests against Caenorhabditis Elegans
(§6) The minimal motility inhibitory concentration (MMIC) of compounds 1-22 against C. elegans was determined as described before.3 Both strains, C. elegans N2 and DC19 were treated identically. Briefly, pre-cultures of C.elegans were kept on NGM agar plates infused with auxotrophic E.coli OP50 as food source.4 After 4 days the plates contained sufficient gravid worms, respectively. Worms were washed from the plates with M9 buffer using wide bore pipette tips. Egg preparation was carried out by treating the harvested worms with an alkaline hypochlorite solution (5 M NaOH + 5 % NaOCl 1:2) in polypropylene tubes. Larvae and adult […]
(§7) We carried out 3 washing steps (M9 buffer) to remove carry-over hypochlorite solution. Subsequently, the eggs were incubated overnight in NGM broth on a rotator to yield synchronized hatched L1/L2 larvae. The larvae solution was adjusted to 100 worms/mL and supplemented with cholesterol (5 µg/mL), carbenicillin (25 µg/mL) and E.coli OP50 (0.5%). This assay solution was distributed into 96 well plates and incubated with a dilution series of compounds 1-22 (64-0.5 µg/mL). An additional eight-point dilution series of ivermecin (40 – 0.3 ng/mL) was used as positive control on each assay plate. Solvent background was controlled by supplementation of pure DMSO without any compound. Assays were incubated for 2 days at room temperature. Finally, a cell imaging multimode reader (Cytation™ 5) was used to record short videos (1.5 seconds) of each individual test well. The videos were used to evaluate the worm motility.

[3] = test system: C. elegans N2; experiment: whole plant or invertebrate; assay type: cell-based, Caenorhabditis elegans; details: for minimal effective concentration: Caenorhabditis elegans, 48 h, read-out: MMIC N2
Text: as §4, §5, §6, §7

[4] = test system: Schistosoma mansoni; experiment: In vitro tests against Schistosoma mansoni (vitality parameters of adult worm pairs); assay type: cell-based
Experimental: Subsequently, we tested whether compounds with nematocidal activity display a broader activity also against parasitic flatworms. To this end, in vitro tests against the blood fluke S. mansoni were conducted (Fig. 4). The worms were incubated in presence of 10 and 20 μM of compounds 1–22 and phenotypic vitality parameters (separation of worm pairs, detachment of suckers from the bottom of the well and weakening of body movements) were assessed as previously described.[31] Compounds reaching 100% effect strength in one of the parameters within 7 days were considered active. Reduction of motility is considered most relevant for antischistosomal drug candidates.[32] In addition, loss of sucker activity would make parasites drifting off from their host habitat (mesenteric veins) and with pair separation, the production of pathology-causing eggs eventually ceases.[33] […] For some molecular targets e.g. glutamate and GABA chloride channels (ivermecin, abamectin) and β-tubulin (albendazole, mebendazole) the C. elegans assays results were transferable to Schistosoma, while for others e.g. acetylcholin mimetic (levamisole) the C. elegans MMIC was not predicative (Fig. S1 ^†).
2.2 Parasitological studies
Animal experiments were performed in accordance with Directive 2010/63/EU on the protection of animals used for scientific purposes and the German Animal Welfare Act. The experiments were approved by the Regional Council (Regierungspraesidium) Giessen (V54 – […]
A Liberian strain of S. mansoni was maintained in the freshwater snail Biomphalaria glabrata as intermediate host and Syrian hamsters (Mesocricetus auratus) as final host (Janvier Labs, France).5,6 Hamsters were infected at 8 weeks of age with 1,750 cercariae by using the paddling method.7 Adult worms were collected at 46 days p.i. by hepatoportal perfusion and cultured in M199 medium (Sigma-Aldrich, Germany) supplemented with 10% Newborn Calf Serum (NCS, Sigma-Aldrich), 1% 1 M HEPES (ThermoFisher Scientific, USA) and 1% ABAM solution (10,000 units/ml penicillin, 10 mg/ml streptomycin and […] amphotericin B; Sigma-Aldrich, Germany) at 37 °C, 5% CO2 and humidified atmosphere.
2.2.3. In vitro tests against Schistosoma mansoni
Test compounds were added at 10 µM or 20 µM in supplemented M199 medium to schistosomes (5 worm pairs per replicate) followed by a 7 d in vitro culture. Worms receiving the solvent DMSO at equal dilution served as negative control. The following vitality parameters were assessed every 24 h by bright field microscopy using a Leica DM IL inverted microscope and x2.5 objective lens: separation of worm pairs into male and female worms; detachment of suckers from the bottom; and weakening of body movements. Worm motility was scored as described previously, 8 with the scores 3 (normal motility), 2 (reduced motility), 1 (minimal and sporadic movements), 0 (no movements within 20 sec; dead worms). An average score of all worms per well was calculated to obtain a motility score. An average motility score of 0, separation of all pairs or detachment of all worms per well was considered

[5] = test system: MDCK II cells; experiment: In vitro cytotoxicity, CellTiter-Glo, MDCK II cells; details: 100 μM; for MDCKII cytotoxicity: 48 h, cell viability less than 80% relative to DMSO control = cytotoxic
[6] = test system: S. aureus ATCC33592; experiment: microbe, parasite or virus in culture; assay type: cell-based; details: Staphylococcus aureus, ATCC33592, read-out: MIC Sa
Experimental: as §1, §2
as §3, with “and tetracycline) were used as positive controls on each assay plate. Inoculated medium without test compound or positive control was used as negative control.” left out
(§8) medium without test compound or positive control was used as negative control.
(§9) Medium background was averaged from 5 replicates. The turbidity of each well was […]

[7] = test system: Escherichia coli ATCC35218; experiment: microbe, parasite or virus in culture; assay type: cell-based; details: ATCC35218, read-out: MIC Ec
Experimental: as §1, §2
as §3, with “and tetracycline) were used as positive controls on each assay plate. Inoculated medium without test compound or positive control was used as negative control.” left out
as §8, §9

[8] = Figure S1, common small molecule anthelminthics

C[C@@H]1[C@H](O)[C@@H](C)/C=C/C=C/C=C/C=C/C=C/C=C/C=C/[C@H](O[C@@H]2O[C@H](C)[C@@H](O)[C@H](N)[C@@H]2O)C[C@@H]2O[C@](O)(C[C@@H](O)C[C@@H](O)[C@H](O)CC[C@@H](O)C[C@@H](O)CC(=O)O[C@H]1C)C[C@H](O)[C@H]2C(=O)O [AMP, amphotericin B, reference compound]
MIC ([1]; MUCL45408, 96 h): 0.125 µg/mL (≈ 0.135 µM)

CCCSc1ccc2nc(NC(=O)OC)[nH]c2c1 [Albendazole, reference compound]
C. elegans MMIC DC19 [2]: < 0.08 µg/mL
C. elegans MMIC N2 [3]: 0.16 µg/mL

CNC(=O)O/N=C/C(C)(C)SC [Aldicarb, reference compound]
C. elegans MMIC DC19 [2, 8]: > 10 µg/mL
C. elegans MMIC N2 [3, 8]: > 10 µg/mL

CC1(C)CC(Cl)CN(Cc2cccc(CN3CC(Cl)CC(C)(C)C3)c2)C1 (centres unmarked) [Compound 1]
MIC ([1]; MUCL45408, 96 h): 64 µg/mL (≈ 161 µM)
minimal effective concentration [3]: 64 µg/mL
activity against S. mansoni (100% effect strength in one parameter within 7 days = active) ([4]; 10 or 20 μM): Schistosoma-specific
motility score ([4]; score 3 normal motility to 0 dead, paragraph on 20 μM): 1–1.2
cytotoxicity against MDCK II (in words) [5]: cytotoxic
MDCKII cytotoxicity [5]: + (“+” (toxic))
MIC [6]: > 64 µg/mL
MIC [7]: > 64 µg/mL

CC1(C)CC(Cl)CN(Cc2cccc(CN3CC(Cl)CC(C)(C)C3)n2)C1 (centres unmarked) [Compound 6]
MIC ([1]; MUCL45408, 96 h): > 64 µg/mL
minimal effective concentration [3]: 64 µg/mL
MDCKII cytotoxicity [5]: + (“+” (toxic))
MIC [6]: 64 µg/mL (≈ 161 µM)
MIC [7]: > 64 µg/mL

CCCCN1CC(Cl)CC(C)(C)C1 (centres unmarked) [Compound 16]
MIC ([1]; MUCL45408, 96 h): > 64 µg/mL
minimal effective concentration ([2]; Caenorhabditis elegans, 48 h, read-out: MMIC DC19): > 64 µg/mL
minimal effective concentration [3]: > 64 µg/mL
MDCKII cytotoxicity [5]: − (“−” (not toxic))
MIC [6]: > 64 µg/mL
MIC [7]: > 64 µg/mL

CNC(C)C1CCC(N)C(OC2C(N)CC(N)C(OC3OCC(C)(O)C(NC)C3O)C2O)O1 (centres unmarked) [GEN, gentamicin, reference compound]
MIC [6]: 0.5 µg/mL (≈ 1.05 µM)
MIC [7]: 1 µg/mL (≈ 2.09 µM)

C[C@H](CCC(=O)O)C[C@H](C)C[C@H](C)C(=O)/C=C(\O)[C@H](C)C[C@H](C)C/C=C/[C@@H](C)[C@@H](O)[C@@H](C)[C@@H](O)C[C@@H]1CC[C@@](C)([C@H]2CC[C@@](C)([C@@H](C)O)O2)O1 [ION, ionomycin, reference compound]
MDCKII cytotoxicity [5]: + (“+” (toxic))

c1ccc([C@H]2CN3CCSC3=N2)cc1 [Levamisole, reference compound]
C. elegans MMIC DC19 [2]: 0.3 µg/mL
C. elegans MMIC N2 [3]: 0.3 µg/mL

COC(=O)Nc1nc2ccc(C(=O)c3ccccc3)cc2[nH]1 [Mebendazole, reference compound]
C. elegans MMIC DC19 [2, 8]: 0.3 µg/mL
C. elegans MMIC N2 [3, 8]: 1.25 µg/mL

C[C@@H]1[C@H](O)[C@@H](C)/C=C/C=C/CC/C=C/C=C/C=C/C=C/C(O[C@H]2O[C@H](C)[C@@H](O)[C@H](N)[C@@H]2O)CC2O[C@](O)(CC(O)C(O)CCC(O)CC(O)CC(O)CC(=O)O[C@H]1C)CC(O)C2C(=O)O (some centres unmarked) [NYS, nystatin, reference compound]
MIC St ([1]; S. tritici MUCL45408, 4 days): 0.25 µg/mL (≈ 0.27 µM)

CC(=O)Oc1ccccc1C(=O)Nc1ncc([N+](=O)[O-])s1 [Nitazoxanide, reference compound]
C. elegans MMIC DC19 [2, 8]: > 10 µg/mL
C. elegans MMIC N2 [3, 8]: > 10 µg/mL

CC(C)C[C@H]1C(=O)O[C@H](Cc2ccccc2)C(=O)N(C)[C@@H](CC(C)C)C(=O)O[C@H](C)C(=O)N(C)[C@@H](CC(C)C)C(=O)O[C@H](Cc2ccccc2)C(=O)N(C)[C@@H](CC(C)C)C(=O)O[C@H](C)C(=O)N1C [PF-1022A, reference compound]
C. elegans MMIC DC19 [2, 8]: 2.5 µg/mL
C. elegans MMIC N2 [3, 8]: 10 µg/mL

O=C(C1CCCCC1)N1CC(=O)N2CCc3ccccc3C2C1 (centres unmarked) [Praziquantel, reference compound]
C. elegans MMIC DC19 [2, 8]: > 10 µg/mL
C. elegans MMIC N2 [3, 8]: > 10 µg/mL

CO[C@H]1/C=C/O[C@@]2(C)Oc3c(C)c(O)c4c(O)c(c(/C=N/N5CCN(C)CC5)c(O)c4c3C2=O)NC(=O)/C(C)=C\C=C\[C@H](C)[C@H](O)[C@@H](C)[C@@H](O)[C@@H](C)[C@H](OC(C)=O)[C@@H]1C [RIF, rifampicin, reference compound]
MIC [6]: > 64 µg/mL
MIC [7]: 4 µg/mL (≈ 4.86 µM)

CC(C)(C)C(O)(CCc1ccc(Cl)cc1)Cn1cncn1 (centres unmarked) [TEB, tebuconazole, reference compound]
MIC ([1]; 96 h, S. tritici MUCL45408, 4 days): > 0.03 µg/mL

Abamectin [reference compound]
C. elegans MMIC DC19 [2, 8]: < 0.08 µg/mL
C. elegans MMIC N2 [3, 8]: < 0.08 µg/mL

ivermectin [IVR, reference compound]
MMIC DC19 ([2]; C. elegans DC19, 2 days): 0.005 µg/mL
C. elegans MMIC DC19 [2, 8]: 0.005 µg/mL
MMIC N2 ([3]; C. elegans N2, 2 days): 0.005 µg/mL
C. elegans MMIC N2 [3, 8]: 0.005 µg/mL
